The subject of one data set is K562. Nature of the data set: Cytotoxicity against human K562 cells assessed as growth inhibition after 72 hrs by resazurin dye-based fluorescence analysis. The format is functional. As to conditions: K562, 72 h. A general note: Resazurin is reduced to fluorescent resorufin, in cell work by metabolically active cells.
In another data set the test system is HCC827. Nature of the data set: Cytotoxicity against human HCC827 cells assessed as growth inhibition after 72 hrs by resazurin dye-based fluorescence analysis. Type of data set: functional. As to conditions: HCC827, 72 h.
Data set [1] can be described thus: Cytotoxicity against human BJ cells assessed as growth inhibition after 72 hrs by resazurin dye-based fluorescence analysis. The format is cell-based.
The subject of data set [2] is EOL1. Nature of the data set: Induction of apoptosis in human FIP1L1-PDGFRA positive EOL-1 cells assessed as increase in cell accumulation at subG1 phase at >=10 nM after 24 hrs by propidium iodide staining based flow cytometry relative to control. The format is functional. For orientation: Flow cytometry measures light scatter and fluorescence of single cells or particles in a stream.

Data set [3] can be described thus: Cytotoxicity against human CEM cells assessed as growth inhibition after 72 hrs by resazurin dye-based fluorescence analysis. Type of data set: cell-based. As to conditions: CEM (CCRF-CEM) cells.
Data set [4] has as its system EOL1. Kind of data set: Cytotoxicity against FIP1L1-PDGFRA positive human EOL-1 cells assessed as growth inhibition after 72 hrs by resazurin dye-based fluorescence analysis. As to conditions: EOL1, 72 h. Type of data set: functional.
Data set [5] deals with EOL1. Kind of data set: Induction of cell cycle arrest at G1 phase in human FIP1L1-PDGFRA positive EOL-1 cells at 10 nM after 24 hrs by propidium iodide staining based flow cytometry. The format is functional.
Data set [6] is described as follows: Selectivity index, ratio of GI50 for human BJ cells to GI50 for FIP1L1-PDGFRA positive human EOL-1 cells after 72 hrs by resazurin dye-based fluorescence analysis.
The nature of data set [7]: Chemical stability of compound. The format is physicochemical.
Data set [8] deals with Platelet-derived growth factor receptor alpha (Homo sapiens, UniProt P16234, V561D). Kind of data set: biochemical. The format is cell-based, Sf9.

These results are taken from ChEMBL document CHEMBL4342414, “Activity of 2,6,9-trisubstituted purines as potent PDGFRα kinase inhibitors with antileukaemic activity” (Eur J Med Chem, 2019).

pIC50: −log10 of the molar value. The source made the active and inactive calls. The calls are words filed in the database; no cut-off is given here.

As a reminder, the GI50 is the concentration at which growth is held to half of that of the control. One may read the pIC50 as the negative decadic logarithm of the IC50, by convention in mol/L. A high value points to a small IC50.

Sequence of Platelet-derived growth factor receptor alpha (P16234 24-1089 V561D limits assumed): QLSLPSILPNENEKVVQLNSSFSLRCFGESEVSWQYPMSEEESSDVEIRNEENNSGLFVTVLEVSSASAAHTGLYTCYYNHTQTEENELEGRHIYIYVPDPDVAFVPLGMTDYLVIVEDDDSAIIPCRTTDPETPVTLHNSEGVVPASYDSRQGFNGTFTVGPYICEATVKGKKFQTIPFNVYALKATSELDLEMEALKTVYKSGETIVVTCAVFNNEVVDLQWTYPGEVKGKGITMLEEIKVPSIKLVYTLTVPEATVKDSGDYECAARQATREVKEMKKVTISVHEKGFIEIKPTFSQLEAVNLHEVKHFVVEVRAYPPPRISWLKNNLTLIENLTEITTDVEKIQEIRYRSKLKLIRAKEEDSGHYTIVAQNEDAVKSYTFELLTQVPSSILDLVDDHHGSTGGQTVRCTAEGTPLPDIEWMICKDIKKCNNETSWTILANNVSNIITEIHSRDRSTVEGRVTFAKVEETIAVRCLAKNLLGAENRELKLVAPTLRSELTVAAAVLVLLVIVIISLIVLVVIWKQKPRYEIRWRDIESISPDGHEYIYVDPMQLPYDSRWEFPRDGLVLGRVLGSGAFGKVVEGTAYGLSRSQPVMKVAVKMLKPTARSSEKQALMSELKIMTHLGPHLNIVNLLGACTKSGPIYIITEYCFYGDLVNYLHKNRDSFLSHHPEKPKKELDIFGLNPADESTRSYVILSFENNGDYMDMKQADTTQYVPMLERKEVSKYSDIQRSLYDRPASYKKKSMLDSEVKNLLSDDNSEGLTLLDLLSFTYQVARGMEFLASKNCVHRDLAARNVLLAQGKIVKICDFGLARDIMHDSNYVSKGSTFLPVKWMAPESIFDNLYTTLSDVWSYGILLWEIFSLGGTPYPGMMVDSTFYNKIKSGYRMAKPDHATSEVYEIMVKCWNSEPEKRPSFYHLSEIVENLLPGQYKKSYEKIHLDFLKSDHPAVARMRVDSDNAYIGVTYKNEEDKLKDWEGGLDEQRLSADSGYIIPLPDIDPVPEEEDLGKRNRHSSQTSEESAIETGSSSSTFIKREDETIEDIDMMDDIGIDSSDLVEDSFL

For `N[C@H]1CC[C@H](Nc2nc(Nc3ccc(CN4CCOCC4)cc3)c3ncn(C4CCCC4)c3n2)CC1`, the GI50 in the data set with K562 is 1.12 µM; in the data set on HCC827 it was 1.01 µM; in the data set with EOL1 [4], 0.007 µM. Moreover, the GI50 at 72 h in data set [1] was found to be 12.3 µM; in [3] it was 0.82 µM. The result in the data set on EOL1 [2] and in the data set with EOL1 [5] was Active.
For the compound `Cc1ccc(NC(=O)c2ccc(CN3CCN(C)CC3)cc2)cc1Nc1nccc(-c2cccnc2)n1` [IMATINIB], the values for the concentration for 50% growth inhibition (GI50) with K562, in the data set with HCC827 and with EOL1 [4] were 0.73 µM, over 40 µM and under 0.0005 µM, respectively. Besides, the figures for the GI50 at 72 h in data set [1] and in data set [3] were over 40 µM and 35.8 µM, respectively. For the same compound, the RatioGI50 in data set [6] is over 80000.
Regarding `N[C@H]1CC[C@H](Nc2nc(Nc3ccc(-n4cnnc4)cc3)c3ncn(C4CCCC4)c3n2)CC1`, the GI50 in the data set with K562 is 1.12 µM; in the data set on HCC827 it was 0.865 µM; with EOL1 [4], 0.005 µM. The Stability entry in [7] is “Unstable”. Besides, the 50% growth inhibitory concentration (GI50) at 72 h in data set [1] is 12.8 µM; in data set [3] it was 0.671 µM.
For `N[C@H]1CC[C@H](Nc2nc(Nc3ccccc3CN3CCOCC3)c3ncn(C4CCCC4)c3n2)CC1`, the GI50 amounted to 4.11 µM with K562, 22.2 µM with HCC827 and 4.52 µM in the data set on EOL1 [4]. Further, the GI50 at 72 h in data set [1] was 30.4 µM; in data set [3] it was 18.1 µM. The RatioGI50 in data set [6] is recorded as 7. Also, in [8], the negative logarithm of the IC50 (pIC50) was under 4.70.
Turning to `N[C@H]1CC[C@H](Nc2nc(Nc3ccccc3CN3CCOCC3)c3ncn(CCCO)c3n2)CC1`, the concentration for 50% growth inhibition (GI50) was over 40 µM in the data set on K562, over 40 µM in the data set on HCC827 and 10.6 µM in the data set with EOL1 [4]. Besides, the 50% growth inhibitory concentration (GI50) at 72 h in data set [1] and in data set [3] was over 40 µM in each case. For the same compound, in data set [6], the RatioGI50 is given as over 4. In data set [8], this compound showed a negative logarithm of the IC50 (pIC50) of under 4.70.
Consider `N[C@H]1CC[C@H](Nc2nc(Nc3ccc(-n4cncn4)cc3)c3ncn(C4CCCC4)c3n2)CC1`, for which the values for the GI50 in the data set on K562, with HCC827 and with EOL1 [4] were 1.55 µM, 1.42 µM and 0.008 µM, respectively. The GI50 at 72 h in data set [1] is 14.7 µM; in [3], 0.871 µM.
As to `NCCCCNc1nc(Nc2ccccc2CN2CCOCC2)c2ncn(C3CCCC3)c2n1`, the values for the concentration for 50% growth inhibition (GI50) in the data set with K562, with HCC827 and in the data set on EOL1 [4] were 12.2 µM, 26.3 µM and 6.41 µM, respectively. Moreover, the 50% growth inhibitory concentration (GI50) at 72 h in data set [1] came out at 37.5 µM; in data set [3], 25.7 µM. Further, the RatioGI50 in [6] is on record as 6. This compound also showed a pIC50 in data set [8] of under 4.70.
Regarding `OCCCNc1nc(Nc2ccc(Oc3nccs3)cc2)c2ncn(C3CCCC3)c2n1`, the results for the 50% growth inhibitory concentration (GI50) with K562, with HCC827 and in the data set with EOL1 [4] were 11.3 µM, 6.49 µM and 0.442 µM, respectively. Besides, the 50% growth inhibitory concentration (GI50) at 72 h came out at 34.1 µM in [1] and 23 µM in data set [3].
For the compound `N[C@H]1CC[C@H](Nc2nc(Nc3ccc(-c4ccccc4O)nc3)c3ncn(C4CCCC4)c3n2)CC1`, the figures for the concentration for 50% growth inhibition (GI50) with K562, in the data set with HCC827 and with EOL1 [4] were 0.5 µM, 0.653 µM and 0.085 µM, respectively. The values for the concentration for 50% growth inhibition (GI50) at 72 h in data set [1] and in data set [3] were 6.35 µM and 0.617 µM, respectively.
As for `Nc1ccccc1-c1ccc(Nc2nc(N[C@H]3CC[C@H](N)CC3)nc3c2ncn3C2CCCC2)cc1`, the GI50 in the data set on K562 is 1.07 µM; in the data set on HCC827, 0.81 µM; in the data set with EOL1 [4], 0.018 µM. Also, the GI50 at 72 h is 12.5 µM in [1] and 0.677 µM in [3].
With `NCCCCNc1nc(Nc2cccc(CN3CCOCC3)c2)c2ncn(C3CCCC3)c2n1`, the GI50 came out at 8.4 µM in the data set with K562, 5.37 µM in the data set with HCC827 and 0.061 µM in the data set with EOL1 [4]. The GI50 at 72 h in [1] came out at 22 µM; in [3], 8.19 µM.
Consider `N[C@H]1CC[C@H](Nc2nc(Nc3cccc(CN4CCOCC4)c3)c3ncn(CCCO)c3n2)CC1`, for which the GI50 in the data set on K562 is over 40 µM; with HCC827, 25.5 µM; with EOL1 [4] it was 0.075 µM. Further, the GI50 at 72 h in [1] and in [3] was over 40 µM in each case.
Consider `N[C@H]1CC[C@H](Nc2nc(Nc3cccc(CN4CCOCC4)c3)c3ncn(C4CCCC4)c3n2)CC1`, for which the GI50 in the data set with K562 was 1.28 µM; with HCC827, 1.19 µM; with EOL1 [4] it was 0.012 µM. Further, the values for the GI50 at 72 h in [1] and in data set [3] were 14.7 µM and 1.36 µM, respectively.
For `NCCCCNc1nc(Nc2ccc(CN3CCOCC3)cc2)c2ncn(C3CCCC3)c2n1`, the concentration for 50% growth inhibition (GI50) stood at 2.79 µM with K562, 2.04 µM with HCC827 and 0.049 µM in the data set with EOL1 [4]. Besides, the GI50 at 72 h in data set [1] was 9.54 µM; in data set [3] it was 3.04 µM.
`OCCCCNc1nc(Nc2ccc(CN3CCOCC3)cc2)c2ncn(CCCO)c2n1`: the concentration for 50% growth inhibition (GI50) was determined as 4.74 µM in the data set with K562, 10.6 µM in the data set with HCC827 and 0.294 µM in the data set with EOL1 [4]. The GI50 at 72 h is 20.8 µM in data set [1] and 5.17 µM in data set [3].
In the case of `OCCCCNc1nc(Nc2ccc(N3CCN(Cc4ccccc4)CC3)cc2)c2ncn(CCCO)c2n1`, the values for the GI50 in the data set on K562, in the data set with HCC827 and in the data set with EOL1 [4] were 8.67 µM, 9.8 µM and 1.01 µM, respectively. The 50% growth inhibitory concentration (GI50) at 72 h in [1] is over 40 µM; in data set [3], 27.9 µM.
For `N[C@H]1CC[C@H](Nc2nc(Nc3ccc(CN4CCOCC4)cc3)c3ncn(CCCO)c3n2)CC1`, the GI50 in the data set on K562 stood at 9.93 µM; in the data set on HCC827, 18.4 µM; in the data set on EOL1 [4], 0.164 µM. Further, the GI50 at 72 h in data set [1] was over 40 µM; in data set [3] it was 34.5 µM.
Take `NCCCCNc1nc(Nc2ccc(CN3CCOCC3)cc2)c2ncn(CCCO)c2n1`: the concentration for 50% growth inhibition (GI50) in the data set on K562 was found to be 9.37 µM; in the data set on HCC827 it was 19 µM; with EOL1 [4], 0.138 µM. In addition, the concentration for 50% growth inhibition (GI50) at 72 h in data set [1] came to 35 µM; in data set [3], 8.2 µM.
Take `N[C@H]1CC[C@H](Nc2nc(Nc3ccc(-n4cccn4)cc3)c3ncn(C4CCCC4)c3n2)CC1`: the GI50 was determined as 0.982 µM in the data set on K562, 0.847 µM in the data set with HCC827 and 0.008 µM in the data set with EOL1 [4]. The Stability entry in data set [7] was “Unstable”. Further, the GI50 at 72 h in data set [1] stood at 10.4 µM; in data set [3] it was 0.933 µM.
